Results reported in US10821142B2, “Cancer treatment and diagnosis” (priority 2015, dated 2020).

Tests used:
[1] = system: STING-dependent genes in murine embryonic fibroblasts; assay: Gene array and qPCR of WT and SKO MEFs treated with AOM or DMH; assay type: cell-based, mouse; conditions: WT and SKO MEFs; DMH 1 mM for 8 hours
Procedure: FIGS. 1A-1E show activation of STING-dependent genes by azoxymethane (AOM) (FIG. 1A) Gene array analysis of Wild type (WT) and STING deficient (SKO) mouse embryonic fibroblasts (MEFs) treated with AOM at 0.14 mM for 8 hours (Left) and 1,2-dimethylhydrazine (DMH) at 1 mM for 8 hours (Right). Highest variable genes are shown. Rows represent individual genes; columns represent individual samples. Grayscale indicates transcript levels below, equal to, or above the mean. Scale represents the intensity of gene expression (log 2 scale ranges between −2.4 and 2.4). (FIG. 1B) qPCR analysis of Cxcl10 and Ifit3 in MEFs treated with AOM and DMH same as FIG. 1A. (FIG. 1C) qPCR analysis of Cxcl10 in Human epithelial cell (FHC) treated with AOM and DMH at 1 mM for 24 hours. (FIG. 1D) FHC cells were transfected with STING or control siRNA for 72 hours followed by AOM and DMH treatment same as FIG. 1C, and were then subjected to Cxcl0 mRNA expression (Left). STING expression level after siRNA treatment was determined by qPCR (Right). […] (FIG. 1E) STING Immunohistochemistry staining of the colon tissue from WT and SKO mice (Left) and Human. All images were shown at original magnification, 200×.
Towards these objectives, the AOM/DSS model, as described above, was utilized and analyzed the effects of AOM and precursor DMH upon STING signaling. Principally, wild type (WT) or STING-deficient (SKO) murine embryonic fibroblasts (MEF) were treated in vitro with DMH or metabolite AOM for 8 hours and microarray analysis performed to analyze the consequences to gene expression. […] The observed STING-dependent gene expression was confirmed following RT-PCR analysis of select mRNA such as Cxcl10 and IFIT3 (FIG. 1B). […] Thus, the DNA damaging agent DMH/AOM can invoke STING-dependent signaling.
Total RNA was isolated from cells or tissues with RNeasy Mini kit (74104, Qiagen, Valencia, Calif.). RNA quality was analyzed by Bionalyzer RNA 6000 Nano (Agilent Technologies, Santa Clara Calif.). […]

[2] = system: type I IFN production; assay: IFNB induction (qPCR) in normal and colon cancer cells treated with AOM or DMH; assay type: cell-based, human; conditions: 15 mM for 20 hours
Procedure: FIG. 22. Normal and colon cancer cells were treated with AOM or DMH at 15 mM for 20 hours. IFNB induction was analyzed by qPCR. STING, IRF3 and NF-kB translocation was examined: +, translocation; −, no translocation.
The question arises as to why the STING-signaling pathway may be inhibited in colon adenocarcinoma. Recently, it was shown that STING-deficient cells and mice are sensitive to AOM-induced DNA damage. In this situation, the STING pathway may play a role in the DNA-damage response pathway, to induce the production of cytokines which facilitate tissue repair or damaged cell removal (Chatzinikolaou et al., 2014; Kidane et al., 2014; Lord and Ashworth, 2012). As such, innate immune induction of CA cells in response to DNA damaging agents was examined. […] Thus, the inhibition of the STING pathway may enable DNA damaged cells, harboring mutations, to escape part of the DNA damage response and the immune surveillance machinery to progress into a tumorigenic state.

[3] = system: IRF3/NF-κB translocation; assay: Immunofluorescence of IRF3/NF-κB translocation in FHC treated with DMH/AOM; assay type: cell-based, human; conditions: 3 mM for 48 hours
Procedure: FIGS. 8A-8C show fluorescence microscopy analysis (related to FIG. 1) of DAPI staining in WT and SKO MEFs treated with 3 mM of AOM of 3 mM of DMH (FIG. 8A) and anti-dsDNA staining and the ration of cytoplasm to nucleus (FIG. 8B) in Human normal colon epithelial cells (FHC) treated with 3 mM of AOM or 3 mM of DMH for 48 hours. (FIG. 8C) Immunofluorescence microscopy analysis of FHC treated with AOM and DMH sane as FIG. 8A for 48 hours using p65 or IRF3 antibody. Images shown at original magnification, 160×.
To start determining the mechanisms underlining the cause of DMH/AOM-induced STING activity, MEF or FHC cells were treated with these drugs and observed by two different approaches, DAPI staining and immunofluorescence (IF) using anti-dsDNA antibody, the leakage of DNA into the cytosol (FIGS. 8A and 8B). Cytosolic DNA activates STING and stimulates STING/TBK1 trafficking via autophagy to endosomal regions harboring the transcription factors IRF3 and NF-κB, which triggers cytokine production. […]
Cells were cultured and treated in their appropriate media on Lab-Tek II chamber slides. […] Immunostaining was performed with rabbit-anti-STING polyclonal followed by fluorescence conjugated secondary antibodies (FITC-goat-anti-rabbit) (Invitrogen). […]

SMILES: CNNC [DMH, 1,2-dimethylhydrazine]
- STING-dependent gene expression [1]: A similar effect was observed
- production of type I IFN ([2]; CA cells with defective STING activated IRF3 or NF-kB activity): unable to generate type I IFN
- production of type I IFN ([2]; normal colon epithelial (CCD841) and LS123): able to induce the production of type I IFN
- translocation of IRF3/NF-κB [3]: could instigate the translocation of IRF3/NF-κB
